Reference: patent US7294637B2 (Sepracor, Inc., priority 2000, dated 2007)
Read-outs that look alike come from different tables or passages of the source.

Legend:
dopamine transporter = dopamine transporter (Homo sapiens, UniProt Q01959); experiment: DA uptake: displacement of dopamine ligands in vitro (methods of Gu et al.); settings: DA Uptake, Uptake Profile (IC50, nM), displacement of dopamine ligands in vitro
serotonin transporter = serotonin transporter (Homo sapiens, UniProt P31645); experiment: 5-HT uptake: displacement of serotonin ligands in vitro (methods of Gu et al.); assay type: binding
[1] = molecular target: norepinephrine transporter (Homo sapiens, UniProt P23975); experiment: NE uptake: displacement of norephinephrine ligands in vitro (methods of Galli et al.); assay type: binding
[2] = displacement of serotonin ligands in vitro, read-out: 5-HT Uptake, Uptake Profile (IC50)
[3] = NE Uptake, Uptake Profile (IC50, nM)
[4] = 5-HT Uptake, Uptake Profile (IC50, nM)

serotonin transporter, sequence (P31645 whole entry): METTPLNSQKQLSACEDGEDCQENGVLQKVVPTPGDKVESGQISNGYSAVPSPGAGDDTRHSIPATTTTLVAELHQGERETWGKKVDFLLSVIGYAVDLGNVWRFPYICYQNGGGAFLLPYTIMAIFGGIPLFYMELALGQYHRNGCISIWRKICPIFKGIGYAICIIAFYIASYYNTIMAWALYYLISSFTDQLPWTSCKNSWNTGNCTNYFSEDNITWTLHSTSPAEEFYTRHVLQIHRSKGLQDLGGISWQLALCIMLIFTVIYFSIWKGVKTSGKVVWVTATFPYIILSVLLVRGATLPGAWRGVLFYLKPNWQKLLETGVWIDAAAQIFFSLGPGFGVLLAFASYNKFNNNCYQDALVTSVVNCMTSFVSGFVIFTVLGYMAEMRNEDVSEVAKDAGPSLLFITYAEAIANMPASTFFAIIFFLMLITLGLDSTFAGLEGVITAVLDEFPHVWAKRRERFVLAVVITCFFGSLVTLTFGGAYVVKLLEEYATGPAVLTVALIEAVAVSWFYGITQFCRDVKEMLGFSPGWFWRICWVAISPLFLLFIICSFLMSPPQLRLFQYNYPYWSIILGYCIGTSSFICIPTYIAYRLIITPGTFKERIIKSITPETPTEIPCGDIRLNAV
dopamine transporter, sequence (Q01959 whole entry): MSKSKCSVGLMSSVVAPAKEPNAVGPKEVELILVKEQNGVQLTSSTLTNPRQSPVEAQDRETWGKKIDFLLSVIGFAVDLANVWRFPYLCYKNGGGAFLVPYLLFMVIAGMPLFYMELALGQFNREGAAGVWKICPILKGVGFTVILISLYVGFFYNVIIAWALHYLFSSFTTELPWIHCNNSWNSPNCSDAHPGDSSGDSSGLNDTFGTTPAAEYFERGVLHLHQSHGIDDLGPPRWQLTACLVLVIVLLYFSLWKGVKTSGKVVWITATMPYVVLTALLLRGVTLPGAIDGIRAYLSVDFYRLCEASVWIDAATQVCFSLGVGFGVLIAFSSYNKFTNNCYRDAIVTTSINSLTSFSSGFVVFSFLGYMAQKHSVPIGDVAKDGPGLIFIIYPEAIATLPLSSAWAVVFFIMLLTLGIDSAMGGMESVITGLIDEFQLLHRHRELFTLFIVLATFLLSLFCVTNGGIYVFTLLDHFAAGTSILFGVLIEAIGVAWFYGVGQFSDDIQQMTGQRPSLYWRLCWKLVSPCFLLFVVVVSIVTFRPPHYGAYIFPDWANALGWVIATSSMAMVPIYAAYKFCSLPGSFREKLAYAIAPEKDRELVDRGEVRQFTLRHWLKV
norepinephrine transporter, sequence (P23975 whole entry): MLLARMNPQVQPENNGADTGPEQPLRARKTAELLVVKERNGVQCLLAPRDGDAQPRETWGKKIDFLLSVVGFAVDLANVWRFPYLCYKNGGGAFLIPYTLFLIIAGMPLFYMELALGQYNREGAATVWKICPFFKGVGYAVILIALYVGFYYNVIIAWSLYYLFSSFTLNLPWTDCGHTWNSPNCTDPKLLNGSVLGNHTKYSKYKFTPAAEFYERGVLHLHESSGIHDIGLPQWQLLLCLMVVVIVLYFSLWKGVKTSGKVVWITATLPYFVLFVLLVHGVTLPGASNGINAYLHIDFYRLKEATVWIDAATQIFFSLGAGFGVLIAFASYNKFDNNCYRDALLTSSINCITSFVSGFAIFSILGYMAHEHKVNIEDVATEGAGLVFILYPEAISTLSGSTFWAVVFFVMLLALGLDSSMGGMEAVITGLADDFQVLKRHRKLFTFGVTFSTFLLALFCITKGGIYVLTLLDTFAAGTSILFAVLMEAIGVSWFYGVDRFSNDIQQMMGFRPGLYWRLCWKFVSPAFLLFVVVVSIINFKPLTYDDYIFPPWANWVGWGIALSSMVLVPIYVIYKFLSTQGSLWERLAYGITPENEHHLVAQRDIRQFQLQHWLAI

Row | SMILES | IC50 (dopamine transporter) [nM] | IC50 (serotonin transporter; [2]) [nM] | IC50 [1, 3] [nM] | IC50 (serotonin transporter; [4]) [nM] | IC50 (serotonin transporter; read-out: 5-HT Uptake, Uptake Profile (IC50)) [nM] | IC50 ([1]; read-out: NE Uptake, Uptake Profile (IC50)) [nM]
1 | FC(F)(F)c1ccc(OCC2CN(CC3(c4ccc(Cl)cc4)CCC3)C2)cc1 [compound 105, methanesulfonic acid 1-[1-(4-chloro-phenyl)-cyclobutylmethyl]-3-(4-trifluoromethyl-phenoxymethyl)-azetidine] | < 10 | < 1000 | < 100 | – | – | –
2 | FC(F)(F)c1ccc(OCC2CN(CC3(c4ccc(Cl)cc4)CCC3)CCCO2)cc1 (stereo not drawn) [compound 11] | < 1000 | > 1000 | > 1000 | – | – | –
3 | FC(F)(F)c1ccc(OCC2CCCN(CCc3c[nH]c4ccccc34)C2)cc1 (stereo not drawn) [compound 180, 3-{2-[3-(4-Trifluoromethyl-phenoxymethyl)-piperidin-1-yl]-ethyl}-1H-indole] | < 1000 | < 1000 | < 1000 | – | – | –
4 | OC(CN1CCCC(COc2ccccc2)C1)c1ccc(Cl)cc1 (stereo not drawn) [compound 33, 1-(4-Chloro-phenyl)-2-(3-phenoxymethyl-piperidin-1-yl)-ethanol] | < 100 | < 1000 | < 1000 | – | – | –
5 | FC(F)(F)c1ccc(OCC2CCCN(CC3COc4ccccc4O3)C2)cc1 (single isomer, unassigned) [compound 176, 1-(2,3-Dihydro-benzo[1,4]dioxin-2-ylmethyl)-3-(4-trifluoromethyl-phenoxymethyl)-piperidine] | < 1000 | < 1000 | > 1000 | – | – | –
6 | Fc1ccc(OC[C@@H]2CCCN(CC3(c4ccc(Cl)cc4)CCC3)C2)cc1 [compound 133, (R)-1-[1-(4-Chloro-phenyl)-cyclobutylmethyl]-3-(4-fluoro-phenoxymethyl)-piperidine] | < 1000 | – | < 1000 | > 1000 | – | –
7 | O=C(CN1CCC[C@@H](CCc2ccccc2)C1)c1ccc(Cl)cc1 [compound 145, (R)-1-(4-Chloro-phenyl)-2-(3-phenethyl-piperidin-1-yl)-ethanone] | < 1000 | – | < 1000 | < 1000 | – | –
8 | OC1(COc2ccc(C(F)(F)F)cc2)CCCN(CC2(c3ccc(Cl)cc3)CCC2)C1 (stereo not drawn) [compound 167, [1-(4-Chloro-phenyl)-cyclobutylmethyl]-3-(4-trifluoromethyl-phenoxymethyl)-piperidin-3-ol] | > 1000 | – | – | – | > 1000 | > 1000
9 | c1ccc(OCC2CCCN(CC3(c4ccccc4)CCC3)C2)cc1 (stereo not drawn) [compound 34, 3-Phenoxymethyl-1-(1-phenyl-cyclobutylmethyl)-piperidine] | < 1000 | < 1000 | < 1000 | – | – | –
10 | O=C(CN1CCCC(COc2ccccc2)C1)c1ccc(Cl)cc1 (stereo not drawn) [compound 32, 1-(4-Chloro-phenyl)-2-(3-phenoxymethyl-piperidin-1-yl)-ethanone] | > 1000 | – | < 1000 | > 1000 | – | –
11 | OC(CN1CCCC(CCc2ccc(C(F)(F)F)cc2)C1)C1(c2ccc(Cl)cc2)CCC1 (single isomer, unassigned) [compound 195, 1-[1-(4-Chloro-phenyl)-cyclobutyl]-2-{3-[2-(4-trifluoromethyl-phenyl)-ethyl]-piperidin-1-yl}-ethanol] | < 100 | < 1000 | < 1000 | – | – | –
12 | OC(CN1CCCC(COc2ccc(OC(F)(F)F)cc2)C1)C1(c2ccc(OC(F)(F)F)cc2)CCC1 (stereo not drawn) [compound 212, 2-[3-(4-Trifluoromethoxy-phenoxymethyl)-piperidin-1-yl]-1-[1-(4-trifluoromethoxy-phenyl)-cyclobutyl]-ethanol] | < 100 | < 1000 | < 1000 | – | – | –
13 | OC(CN1CCCC(CCc2ccc(C(F)(F)F)cc2)C1)C1(c2ccc(Cl)cc2)CCC1 (single isomer, unassigned) [compound 194, 1-[1-(4-Chloro-phenyl)-cyclobutyl]-2-{3-[2-(4-trifluoromethyl-phenyl)-ethyl]-piperidin-1-yl}-ethanol] | < 10 | < 1000 | < 100 | – | – | –
